Source: patent US8188098B2, “GPR119 receptor agonists” (Hoffmann-La Roche Inc., priority 2008, dated 2012)
Structures can show the parent of a compound that is named as a salt.

The compounds below were run against T1, GPR119 receptor (Mesocricetus auratus, UniProt A0A1U8CD06) (assay: cAMP assay in HIT-T15 hamster pancreatic islet cells (functional agonist activity)). Conditions: HIT-T15 cells endogenously expressing GPR119; 30 min at 25° C.; intracellular cAMP.
T1 construct: which endogenously express the GPR119 receptor; host or cells: HIT-T15 hamster pancreatic islet cells
T1 sequence (A0A1U8CD06 1-334): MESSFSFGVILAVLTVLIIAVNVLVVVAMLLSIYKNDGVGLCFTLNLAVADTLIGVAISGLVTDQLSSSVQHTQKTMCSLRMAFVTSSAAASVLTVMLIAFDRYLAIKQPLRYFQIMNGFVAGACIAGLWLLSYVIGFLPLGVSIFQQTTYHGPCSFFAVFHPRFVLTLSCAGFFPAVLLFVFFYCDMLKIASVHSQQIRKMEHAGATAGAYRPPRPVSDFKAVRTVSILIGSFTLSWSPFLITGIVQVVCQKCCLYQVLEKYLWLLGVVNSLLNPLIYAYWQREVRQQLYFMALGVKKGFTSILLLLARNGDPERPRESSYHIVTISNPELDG
Type: cell-based
Method: The functional agonist activities of compounds of the invention were characterized using a cAMP assay in HIT-T15 hamster pancreatic islet cells (American Type Culture Collection, Manassas, Va., USA) which endogenously express the GPR119 receptor. The cells were cultured in Kaighn's modification of Ham's F12 medium (Invitrogen Corporation, Carlsbad, Calif., USA) containing 10% horse serum, 2.5% FBS, and 1% Pen/Strep and grown in 225 cm^2 tissue culture flasks until they reached 75-85% confluence.
The cells were harvested 24 h prior to assay with 5 ml Versene®, washed with Kaighn/F12 medium and then plated into white 384-well plates (9000 cells/well) containing Kaighn/F12 medium. Prior to assay, the culture medium was replaced with a Kaighn/F12 medium without phenol red (50 μL/well) containing 0.5 mM 3-isobutyl-1-methylxanthine, 0.5 mg/ml BSA. The cells were incubated in the dark for 30 min at 25° C. in the absence or presence of varying concentrations of agonist (1 μL, 100% DMSO). The incubation media was discarded and replaced with the assay lysis buffer (50 μL/well) provided in the Tropix cAMP-Screen® kit (Applied Biosystems, Foster City, Calif., USA) and the plates incubated for 45 min at 37° C. The intracellular levels of cAMP generated in the HIT-T 15 cells were measured using the Tropix kit. In brief, 20 μL of the lysate was transferred into pre-coated antibody plates (384-well; Tropix kit) along with 10 μL of alkaline phosphatase conjugate and 20 μL of anti-cAMP antibody and the plates were incubated for 1 h at room temperature while shaking. The plates were then washed 5 times with wash buffer (70 μL) and tapped dry. CSPD®/Sapphire-II™ RTU substrate/enhancer solution (Applied Biosystems, Foster City, Calif., USA; 30 μL) was added and the plates were incubated for 45 min at room temperature while shaking. The signal generated was measured using a Wallac Victor V Luminometer (PerkinElmer Life And Analytical Sciences, Inc., Waltham, Mass., USA; 1 sec/well). EC50 values were calculated using the XLFit program (ID Business Solutions Ltd., Guildford, Surrey, UK).
For `Cc1ncccc1Oc1ncnc2c1cnn2C1CCN(C(=O)OC(C)C)CC1` [Example 28, 4-[4-(2-Methyl-pyridin-3-yloxy)-pyrazolo[3,4-d]pyrimidin-1-yl]-piperidine-1-carboxylic acid isopropyl ester hydrochloride salt], the EC50 was 0.82 µM.
`Cc1nc(S(C)(=O)=O)ccc1Oc1ncnc2c1cnn2C1CCN(C(=O)OC(C)C)CC1` [Example 29, 4-[4-(6-Methanesulfonyl-2-methyl-pyridin-3-yloxy)-pyrazolo[3,4-d]pyrimidin-1-yl]-piperidine-1-carboxylic acid isopropyl ester] showed an EC50 of 0.14 µM.
With `Cc1nc(-n2cncn2)ccc1Oc1ncnc2c1cnn2C1CCN(C(=O)OC(C)C)CC1` [Example 30, 4-[4-(2-Methyl-6-[1,2,4]triazol-1-yl-pyridin-3-yloxy)-pyrazolo[3,4-d]pyrimidin-1-yl]-piperidine-1-carboxylic acid isopropyl ester] the EC50 was 0.86 µM.
`CC(C)OC(=O)N1CCC(n2ncc3c(Oc4ccc(=O)n(C)n4)ncnc32)CC1` [Example 31, 4-[4-(1-Methyl-6-oxo-1,6-dihydro-pyridazin-3-yloxy)-pyrazolo[3,4-d]pyrimidin-1-yl]-piperidine-1-carboxylic acid isopropyl ester] was tested, and the EC50 was 3.5 µM.
For `CC(C)(C)OC(=O)N1CCC(n2ncc3c(Oc4ccccc4F)ncnc32)CC1` [Example 32, 4-[4-(2-Fluoro-phenoxy)-pyrazolo[3,4-d]pyrimidin-1-yl]-piperidine-1-carboxylic acid tert-butyl ester], the EC50 was 0.19 µM.
Work on `CC(C)(C)OC(=O)N1CCC(n2ncc3c(Oc4cccc(F)c4)ncnc32)CC1` [Example 33, 4-[4-(3-Fluoro-phenoxy)-pyrazolo[3,4-d]pyrimidin-1-yl]-piperidine-1-carboxylic acid tert-butyl ester] yielded an EC50 of 0.6 µM.
For `CC(C)(C)OC(=O)N1CCC(n2ncc3c(Oc4ccc(F)cc4)ncnc32)CC1` [Example 34, 4-[4-(4-Fluoro-phenoxy)-pyrazolo[3,4-d]pyrimidin-1-yl]-piperidine-1-carboxylic acid tert-butyl ester], the EC50 was 0.53 µM.
With `CC(C)(C)OC(=O)N1CCC(n2ncc3c(Oc4cc(F)c(F)cc4F)ncnc32)CC1` [Example 35, 4-[4-(2,4,5-Trifluoro-phenoxy)-pyrazolo[3,4-d]pyrimidin-1-yl]-piperidine-1-carboxylic acid tert-butyl ester] the EC50 was 0.088 µM.
In the case of `CC(C)(C)OC(=O)N1CCC(n2ncc3c(Oc4ccc(Cl)cc4Cl)ncnc32)CC1` [Example 38, 4-[4-(2,4-Dichloro-phenoxy)-pyrazolo[3,4-d]pyrimidin-1-yl]-piperidine-1-carboxylic acid tert-butyl ester], the EC50 is reported as 0.49 µM.
Compound `COc1ccc(Oc2ncnc3c2cnn3C2CCN(C(=O)OC(C)(C)C)CC2)cc1` [Example 39, 4-[4-(4-Methoxy-phenoxy)-pyrazolo[3,4-d]pyrimidin-1-yl]-piperidine-1-carboxylic acid tert-butyl ester] has an EC50 of 0.72 µM.
`CCOc1ccc(Oc2ncnc3c2cnn3C2CCN(C(=O)OC(C)(C)C)CC2)cc1` [Example 40, 4-[4-(4-Ethoxy-phenoxy)-pyrazolo[3,4-d]pyrimidin-1-yl]-piperidine-1-carboxylic acid tert-butyl ester] was tested, and the EC50 was 0.2 µM.
With `CC(C)(C)OC(=O)N1CCC(n2ncc3c(Oc4ccc5c(c4)OCO5)ncnc32)CC1` [Example 41, 4-[4-(Benzo[1,3]dioxol-5-yloxy)-pyrazolo[3,4-d]pyrimidin-1-yl]-piperidine-1-carboxylic acid tert-butyl ester] the EC50 was 0.29 µM.
`CC(C)(C)OC(=O)N1CCC(n2ncc3c(Oc4ccc(OC(F)(F)F)cc4)ncnc32)CC1` [Example 42, 4-[4-(4-Trifluoromethoxy-phenoxy)-pyrazolo[3,4-d]pyrimidin-1-yl]-piperidine-1-carboxylic acid tert-butyl ester] was tested, and the EC50 was 1.8 µM.
For `CCOc1ccc(Oc2ncnc3c2cnn3C2CCN(C(=O)OC(C)(C)C)CC2)c(F)c1` [Example 43, 4-[4-(4-Ethoxy-2-fluoro-phenoxy)-pyrazolo[3,4-d]pyrimidin-1-yl]-piperidine-1-carboxylic acid tert-butyl ester], the EC50 was 0.018 µM.
`COc1ccc(Oc2ncnc3c2cnn3C2CCN(C(=O)OC(C)(C)C)CC2)c(Cl)c1` [Example 44, 4-[4-(2-Chloro-4-methoxy-phenoxy)-pyrazolo[3,4-d]pyrimidin-1-yl]-piperidine-1-carboxylic acid tert-butyl ester] gave an EC50 of 0.19 µM.
`CC(C)(C)OC(=O)N1CCC(n2ncc3c(Oc4ccccc4C#N)ncnc32)CC1` [Example 45, 4-[4-(2-Cyano-phenoxy)-pyrazolo[3,4-d]pyrimidin-1-yl]-piperidine-1-carboxylic acid tert-butyl ester] gave an EC50 of 0.061 µM.
In the case of `CC(C)(C)OC(=O)N1CCC(n2ncc3c(Oc4ccc(C#N)cc4)ncnc32)CC1` [Example 46, 4-[4-(4-Cyano-phenoxy)-pyrazolo[3,4-d]pyrimidin-1-yl]-piperidine-1-carboxylic acid tert-butyl ester], the EC50 is reported as 0.48 µM.
With `CC(C)(C)OC(=O)N1CCC(n2ncc3c(Oc4ccc(C#N)cc4F)ncnc32)CC1` [Example 47, 4-[4-(4-Cyano-2-fluoro-phenoxy)-pyrazolo[3,4-d]pyrimidin-1-yl]-piperidine-1-carboxylic acid tert-butyl ester] the EC50 was 0.28 µM.
`CC(C)(C)OC(=O)N1CCC(n2ncc3c(Oc4ccc(C#N)c(F)c4)ncnc32)CC1` [Example 48, 4-[4-(4-Cyano-3-fluoro-phenoxy)-pyrazolo[3,4-d]pyrimidin-1-yl]-piperidine-1-carboxylic acid tert-butyl ester] showed an EC50 of 0.22 µM.
Compound `CC(C)(C)OC(=O)N1CCC(n2ncc3c(Oc4c(C#N)ccc(F)c4F)ncnc32)CC1` [Example 49, 4-[4-(6-Cyano-2,3-difluoro-phenoxy)-pyrazolo[3,4-d]pyrimidin-1-yl]-piperidine-1-carboxylic acid tert-butyl ester] has an EC50 of 0.048 µM.
For `CC(C)(C)OC(=O)N1CCC(n2ncc3c(Oc4cc(F)c(F)cc4C#N)ncnc32)CC1` [Example 50, 4-[4-(2-Cyano-4,5-difluoro-phenoxy)-pyrazolo[3,4-d]pyrimidin-1-yl]-piperidine-1-carboxylic acid tert-butyl ester], the EC50 was 0.69 µM.
In the case of `CC(C)(C)OC(=O)N1CCC(n2ncc3c(Oc4ccc(Cl)cc4C#N)ncnc32)CC1` [Example 51, 4-[4-(4-Chloro-2-cyano-phenoxy)-pyrazolo[3,4-d]pyrimidin-1-yl]-piperidine-1-carboxylic acid tert-butyl ester], the EC50 is reported as 0.11 µM.
`CC(C)(C)OC(=O)N1CCC(n2ncc3c(Oc4ccc(Br)cc4C#N)ncnc32)CC1` [Example 52, 4-[4-(4-Bromo-2-cyano-phenoxy)-pyrazolo[3,4-d]pyrimidin-1-yl]-piperidine-1-carboxylic acid tert-butyl ester] was tested, and the EC50 was 0.75 µM.
`CC(C)(C)OC(=O)N1CCC(n2ncc3c(Oc4cc(F)cc(C(F)(F)F)c4)ncnc32)CC1` [Example 53, 4-[4-(3-Fluoro-5-trifluoromethyl-phenoxy)-pyrazolo[3,4-d]pyrimidin-1-yl]-piperidine-1-carboxylic acid tert-butyl ester] was tested, and the EC50 was 0.49 µM.
Work on `CC(C)(C)OC(=O)N1CCC(n2ncc3c(Oc4ccc(C(F)(F)F)cc4Cl)ncnc32)CC1` [Example 54, 4-[4-(2-Chloro-4-trifluoromethyl-phenoxy)-pyrazolo[3,4-d]pyrimidin-1-yl]-piperidine-1-carboxylic acid tert-butyl ester] yielded an EC50 of 0.083 µM.
Work on `CC(C)(C)OC(=O)N1CCC(n2ncc3c(Oc4ccc(Cl)c(C(F)(F)F)c4)ncnc32)CC1` [Example 55, 4-[4-(4-Chloro-3-trifluoromethyl-phenoxy)-pyrazolo[3,4-d]pyrimidin-1-yl]-piperidine-1-carboxylic acid tert-butyl ester] yielded an EC50 of 0.15 µM.
In the case of `CC(C)(C)OC(=O)N1CCC(n2ncc3c(Oc4ccc(S(N)(=O)=O)cc4)ncnc32)CC1` [Example 56, 4-[4-(4-Sulfamoyl-phenoxy)-pyrazolo[3,4-d]pyrimidin-1-yl]-piperidine-1-carboxylic acid tert-butyl ester], the EC50 is reported as 0.28 µM.
`CN(C)S(=O)(=O)c1ccc(Oc2ncnc3c2cnn3C2CCN(C(=O)OC(C)(C)C)CC2)cc1` [Example 57, 4-[4-(4-Dimethylsulfamoyl-phenoxy)-pyrazolo[3,4-d]pyrimidin-1-yl]-piperidine-1-carboxylic acid tert-butyl ester] was tested, and the EC50 was 0.3 µM.
